Laboratory results published in publication PMC8217170, “Phase Ib dose-escalation study of the hypoxia-modifier Myo-inositol trispyrophosphate in patients with hepatopancreatobiliary tumors” (Nature Communications, 2021).
“And” between values parts separate entries of the source, which are not always exact repeats. Identical values can stand only once.

What was measured:
ANG1 = assay: Serum angiogenesis marker, multiplex bead-based immunoassay (LEGENDplex); assay type: in vivo, human; parameters: ANG1: unit not given here; details: for ANG1: serum, duplicate wells
ANG2 = assay: as above; assay type: in vivo, human; parameters: ANG2: unit not given here; details: for ANG2: serum, duplicate wells
PECAM1/CD31 [1] = assay: as above; assay type: in vivo, human; details: for PECAM_1: serum, duplicate wells
Procedure: Serum angiogenesis markers were quantified by multiplex bead-based immunoassays following provided instructions (LEGENDplex™, Biolegend, San Diego, CA/USA). For biochemical markers, the percentage change comparing before (day 1 0 h) with after (last day 9 h) ITPP treatment was calculated.

ERG = assay: Immunohistochemistry of tumor tissue before vs after ITPP, one patient; assay type: in vivo, human
Procedure: (§1) Samples were collected in 4% buffered formaldehyde, dehydrated, embedded in paraffin and cut into 5 µm sections and stained after antigen retrieval. Hematoxylin/eosin and Masson’s trichrome stains were performed according to standard protocols. The following antibodies were used for immunohistochemical staining: pan-B cytokeratin (CkpanB, Dako, M3515, dilution 1/50), HIF1α (Abcam, ab16066, dilution 1/400), HIF2α (Abcam, ab199, dilution 1/50), carbonic anhydrase 9 (CA9, Abcam, ab15086, dilution 1/3000), glucose transporter 1/SLC2A1 (GLUT1, Millipore, 07-1401, dilution 1/1000), PECAM1 / CD31 (Dako, M0823, dilution 1/10), ETS transcription factor (ERG, Roche, 790-4576, prediluted) and vimentin (VIM, Dako, M7020, dilution 1/250). For histological analyses, 5 random images of tumor areas of stained slides were taken at 40x magnification. Stained areas were isolated by color deconvolution and thresholding. Quantification of staining intensity was measured on thresholded areas, converted onto a scale from 0 (white, no staining) to 100 (black, completely stained) and compared between the sample taken before ITPP treatment and the one after. For calculation of percentage area stained, thresholded areas were compared to the complete area of the picture. ImageJ (V1.53c, National Institutes of Health, USA) was used for all histological analyses.
(§2) This analyses must be regarded with caution due to n=1!

HIF1α = assay: as above; assay type: in vivo, human
Procedure: as §1, §2

HIF2α = assay: as above; assay type: in vivo, human; details: patient nr. 21, CRLM, only weak staining
Procedure: as §1, §2

PECAM1/CD31 [2] = assay: as above; assay type: in vivo, human; details: CD31 stain, group After (ITPP), one value per image field; threshold 0-90
Procedure: as §1, §2

SLC2A1/GLUT1 = assay: as above; assay type: in vivo, human; details: patient nr. 21, CRLM
Procedure: as §1, §2

Vimentin = assay: as above; assay type: in vivo, human
Procedure: as §1, §2

[3] = tested on: carbonic anhydrase 9 (CA9); assay: as above; assay type: in vivo, human
Procedure: as §1, §2

[4] = tested on: human colon carcinomatosis; parameters: method as in ref 12 (supplementary references); details: xenogeneic mouse model of human colon carcinomatosis; ref 12 (supplementary references); cited from earlier work
[5] = parameters: method as in unpublished data obtained from NormOxys; details: rats, once a week for 5 weeks; ref unpublished data obtained from NormOxys; cited from earlier work
[6] = following ITPP treatment, 27 patients
[7] = Patient 25, Cohort 8, PDAC, Day 3 post
[8] = Patient 25, Cohort 8, PDAC, Day 9 post
[9] = Patient 26, Cohort 8, PDAC, Day 3 post
[10] = Patient 26, Cohort 8, PDAC, Day 9 post
[11] = Patient 27, Cohort 8, CCC, Day 3 post
[12] = Patient 27, Cohort 8, CCC, Day 9 post
[13] = Patient 28, Cohort 8, CRLM, Day 3 post
[14] = Patient 28, Cohort 8, CRLM, Day 9 post

O=P1(O)OC2C3OP(=O)(O)OP(=O)(O)OC3C3OP(=O)(O)OP(=O)(O)OC3C2OP(=O)(O)O1 (stereo not shown) [ITPP, Myo-inositol trispyrophosphate]
Share of patients with reduced ANG1 (ANG1; [6]): 51.9% | ANG1 (ANG1; [7]): 692.38 | ANG1 (ANG1; [8]): 719.05 and 765.98 | ANG1 (ANG1; [9]): 143.21 and 130.63 | ANG1 (ANG1; [10]): 207.7 and 218.53 | ANG1 (ANG1; [11]): 904.42 and 799.6 | ANG1 (ANG1; [12]): 835.71 and 800.95 | ANG1 (ANG1; [13]): 981.48 and 747.77 | ANG1 (ANG1; [14]): 618.86 and 532.8 | Share of patients with reduced ANG2 (ANG2; [6]): 59.3% | ANG2 (ANG2; [7]): 228.25 | ANG2 (ANG2; [8]): 251.99 and 267.93 | ANG2 (ANG2; [9]): 4.97 and 2.94 | ANG2 (ANG2; [10]): 13.32 and 15.98 | ANG2 (ANG2; [11]): 207.26 and 180.83 | ANG2 (ANG2; [12]): 218.06 and 212.68 | ANG2 (ANG2; [13]): 323.31 and 262.92 | ANG2 (ANG2; [14]): 200.18 and 179.44 | Share of patients with reduced PECAM1 (PECAM1/CD31 [1]; [6]): 66.7% | PECAM_1 (PECAM1/CD31 [1]; [7]): 261.09 | PECAM_1 (PECAM1/CD31 [1]; [8]): 287.51 and 289.5 | PECAM_1 (PECAM1/CD31 [1]; [9]): 298.56 and 289.5 | PECAM_1 (PECAM1/CD31 [1]; [10]): 215.26 and 221.83 | PECAM_1 (PECAM1/CD31 [1]; [11]): 350.64 and 331.88 | PECAM_1 (PECAM1/CD31 [1]; [12]): 286.17 and 303.44 | PECAM_1 (PECAM1/CD31 [1]; [13]): 299.11 and 271.68 | PECAM_1 (PECAM1/CD31 [1]; [14]): 262.91 and 211.07 | %Area (ERG; Erg stain, group After (ITPP), one value per image field, threshold 0-130): 0.53% and 0.557% and 0.323% and 0.603% and 0.393% | ERG after ITPP treatment (ERG; patient nr. 21, CRLM): more abundant | %Area (HIF1α; HIF1a stain, group After (ITPP), one value per image field, threshold 0-220): 60.518% and 62.226% and 71.026% and 45.098% and 63.507% | HIF1α staining, before vs after ITPP treatment (HIF1α; patient nr. 21, CRLM, only weak staining): no difference | HIF2α staining, before vs after ITPP treatment (HIF2α): no difference | %Area (PECAM1/CD31 [2]): 1.371% and 1.754% and 0.512% and 2.094% and 0.52% | Expression of SLC2A1/GLUT1 in cancer cells after ITPP treatment (SLC2A1/GLUT1): downregulated | %Area (Vimentin; Vim stain, group After (ITPP), one value per image field, threshold 0-160): 29.786% and 30.117% and 24.166% and 28.151% and 26.502% | Vimentin after ITPP administration (Vimentin; patient nr. 21, CRLM): decreased | %Area ([3]; CAIX stain, group After (ITPP), one value per image field, threshold 0-130): 0.006% and 0.014% and 0.943% and 0.008% and 0.048% | Expression of carbonic anhydrase 9 (CA9) after ITPP treatment ([3]; patient nr. 21, CRLM): decreased | Decrease of tumor growth compared with capecitabine [4]: more efficient than capecitabine | Human equivalent dose-corrected NOAEL [5]: 15,000 mg/m2
